The test system of the data set is proteome of NCI-H1568 cells. As to the kind of experiment: Whole cell unbiased proteomics (TMT) in NCI-H1568 cells. It is filed as cell-based, human. The settings on record: for Rel. Int.: TMT reporter intensity relative to DMSO 1; for Rel. Int. / Normalised: replicates 1-3; for average: average of normalised replicates; for log2: log2 fold change vs DMSO; for Normalised: normalised relative intensity. The protocol: Cells were seeded at 5 × 10^6 cells on a 100 mm plate 24 h before treatment. Cells were treated in triplicate by addition of test compounds at 100 nM. After 4 h, the cells were washed twice with 10 ml cold PBS and lysed in 500 µL of 100 mM TEAB with 5% (w/v) SDS. The lysate was pulse sonicated briefly and then centrifuged at 15,000 × g for 10 min. Samples were quantified using a micro-BCA protein assay kit (Thermo Fisher Scientific). 300 µg of each sample was reduced with DTT, alkalised with iodoacetamide and double-digested with trypsin using the modified S-TRAP mini (ProtiFi) protocol. Peptide quantification was done using Pierce™ Quantitative Fluorometric Peptide Assay and equal amount from each sample was labelled using TMTpro^TM 16plex Label Reagent Set (Thermo Fisher Scientific) as per the manufacturer’s instructions. The samples were then pooled and desalted using a 7 mm, 3 mL C18 SPE cartridge column (Empore, 3 M). The pooled and desalted sample was fractionated using high pH reverse-phase chromatography on an XBridge peptide BEH column (130 Å, 3.5 μm, 2.1 × 150 mm, Waters) on an Ultimate 3000 HPLC system (Thermo Scientific/Dionex). Buffers A (10 mM ammonium formate in water, pH 9) and B (10 mM ammonium formate in 90% acetonitrile, pH 9) were used over a linear gradient of 2% to 100% buffer B over 80 min at a flow rate of 200 μL/min. 80 fractions were collected using a WPS-3000 FC auto-sampler (Thermo Scientific) before concatenation into 20 fractions based on the UV signal of each fraction. All the fractions were dried in a Genevac EZ-2 concentrator and resuspended in 1% formic acid for MS analysis. The fractions were analysed sequentially on a Q Exactive HF Hybrid Quadrupole-Orbitrap Mass Spectrometer (Thermo Scientific) coupled to an Dionex Ultimate 3000 RS (Thermo Scientific). […] The column temperature was 50 °C. The mass spectrometer was operated in data dependent mode with a single MS survey scan from 335 to 1600 m/z followed by 15 sequential m/z dependent MS2 scans. The 15 most intense precursor ions were sequentially fragmented by higher energy collision dissociation (HCD). The MS1 isolation window was set to 0.7 m/z and the resolution set at 120,000. MS2 resolution was set at 60,000. The AGC targets for MS1 and MS2 were set at 3 × 10^6 ions and 1 × 10^5 ions, respectively. The normalised collision energy was set at 32%. The maximum ion injection times for MS1 and MS2 were set at 50 ms and 200 ms, respectively. The mass accuracy was checked before the initiation of sample analysis. The raw MS data files for all 20 fractions were merged and searched against the Uniprot-sprot-Human-Canonical database (FASTA file released in November 2019) by Maxquant software 2.0.3.0 for protein identification and TMT reporter ion quantitation. The Maxquant parameters were set as follows: enzyme used Trypsin/P; maximum number of missed cleavages equal to two; precursor mass tolerance equal to 10 p.p.m.; fragment mass tolerance equal to 20 p.p.m.; variable modifications: oxidation (M), dioxidation (MW), acetyl (N-term), deamidation (NQ), Gln -> pyro-Glu (Q N-term); fixed modifications: carbamidomethyl (C). Peptide and protein data was filtered by applying a 1% false discovery rate followed by exclusion of proteins with less than two unique peptides. Quantified proteins were filtered if the absolute fold-change difference between the three DMSO replicates was ≥1.5.

The mark [1] stands for this setting: protein SIK1 (LOC102724428;SIK1).

Values joined by “and” are separate entries in the source; they are usually repeats but may differ in a detail not shown here. Equal entries are not always repeated.

For the compound `Cc1ncsc1-c1ccc(C(CCC(C)CCN2CCC(c3ccc4c(c3)n(C3CCCC3)c3nc(=O)c5c(Br)cccc5n43)CC2)NC(=O)C2CC(O)CN2C(=O)C(NC(=O)C2(F)CC2)C(C)(C)C)cc1` (stereo not drawn) [ACBI2], the “-logP” value turned out to be 4.42. Further, where the note is “protein BRPF1 (P55201)”, the “Rel. Int.” value is 0.86 and 0.73 and 0.58; the average came out at 0.72; the log2 is on record as -0.46; the Normalised was 0.74 and 0.73 and 0.70. Further, for the setting “protein ETS1 (P14921)”, the “Rel. Int.” value is 1.29 and 1.11 and 0.95; the average is listed as 1.13; the log2 was determined as 0.17; the Normalised is 1.12 (2×) and 1.14. In addition, under “protein PBRM1 (Q86U86)”, the “Rel. Int.” value is 0.41 and 0.40 and 0.32; the average came to 0.38; the log2 is -1.40; the Normalised is 0.36 and 0.40 and 0.39. In addition, under setting [1], the “Rel. Int.” value is 1.44 and 1.21 and 1.03; the average is listed as 1.24; the log2 turned out to be 0.30; the Normalised was 1.25 and 1.21 and 1.24. Further, under “protein SMARCA2 (P51531)”, the “Rel. Int.” value was 0.52 and 0.45 and 0.40; the average is reported as 0.46; the log2 is on record as -1.12; the Normalised was 0.45 and 0.46 and 0.48.

Take `Cc1ncsc1-c1ccc([C@H](CC[C@H](C)CCN2CCC(c3ccc4c(c3)n(C3CCCC3)c3nc(=O)c5c(Br)cccc5n43)CC2)NC(=O)[C@@H]2C[C@H](O)CN2C(=O)[C@@H](NC(=O)C2(F)CC2)C(C)(C)C)cc1` [compound 12]: the “-logP” value was 0.0276. Further, where the note is “protein BRPF1 (P55201)”, the “Rel. Int.” value is 0.90 and 0.91 (2×); the average was 0.99; the log2 is given as -0.0113; the Normalised is 0.98 (2×) and 1.02. Further, under “protein ETS1 (P14921)”, the “Rel. Int.” value was 0.94 and 0.98 and 0.91; the average is on record as 1.03; the log2 is reported as 0.05; the Normalised is 1.04 and 1.05 and 1.02. For the same compound, for the setting “protein PBRM1 (Q86U86)”, the “Rel. Int.” value was 0.85 and 0.92 and 0.84; the average was 0.95; the log2 is on record as -0.07; the Normalised was 0.93 and 0.98 and 0.94. Also, under setting [1], the “Rel. Int.” value was 0.93 and 0.92 and 0.88; the average is given as 1.00; the log2 was -0.00277; the Normalised was 1.02 and 0.98 and 0.99. Further, where the note is “protein SMARCA2 (P51531)”, the “Rel. Int.” value is 0.90 and 0.92 and 0.88; the average came to 0.99; the log2 is on record as -0.0184; the Normalised was 0.99 (2×) and 0.98.

The values are drawn from article PMC9551036, “A selective and orally bioavailable VHL-recruiting PROTAC achieves SMARCA2 degradation in vivo” (Nature Communications, 2022).
